Molecules are shown by their SMILES.

The target of this test is T1, hMC2 receptor (Homo sapiens, UniProt Q01718).
T1 construct: host or cells: CRE-bla-CHO-K1 cells, crude membrane fraction
T1 sequence (Q01718 whole entry): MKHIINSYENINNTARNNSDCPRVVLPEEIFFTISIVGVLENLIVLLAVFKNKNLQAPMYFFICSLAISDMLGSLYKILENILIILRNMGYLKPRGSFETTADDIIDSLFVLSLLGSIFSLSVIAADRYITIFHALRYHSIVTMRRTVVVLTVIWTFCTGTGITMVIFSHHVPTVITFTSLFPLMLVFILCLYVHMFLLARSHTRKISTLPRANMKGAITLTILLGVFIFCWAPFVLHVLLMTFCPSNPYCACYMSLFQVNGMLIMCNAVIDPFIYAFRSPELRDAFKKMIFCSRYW
T1 sequence (Q8TCY5 whole entry partner): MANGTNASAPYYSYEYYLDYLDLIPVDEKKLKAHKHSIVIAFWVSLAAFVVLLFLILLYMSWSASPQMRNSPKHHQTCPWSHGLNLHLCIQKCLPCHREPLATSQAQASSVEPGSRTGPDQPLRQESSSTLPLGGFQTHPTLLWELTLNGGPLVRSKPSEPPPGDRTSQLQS
As to the kind of experiment: hMC2 membrane binding assay ([125I]ACTH (1-39) Tyr23, SPA). The following applies: crude hMC2R membranes from CRE-bla-CHO-K1 cells expressing hMC2 receptor and hMRAP; 0.2 nM [125I]ACTH (1-39) Tyr23; 1.5 hours at room temperature; read-out: MC2R binding potency. As to the method:
Crude membrane fractions are prepared from CRE-bla-CHO-K1 cells stably expressing hMC2 receptor and hMRAP accessory protein (Thermo Fisher). The cells are grown to 85-100% confluence on standard tissue culture dishes in GlutaMax DMEM growth media (Gibco) with following additives: 10% dialyzed FBS (Gemini), 0.1 mM NEAA (Gibco), 25 mM HEPES (Gibco), 5 μg/mL blasticidin (Goldbio), 100 μg/mL zeocin (Invitrogen), 600 μg/mL hygromycin (Goldbio). To prepare membranes, cells are scraped and collected in 1× Dulbecco's phosphate buffered saline (Corning) and then pelleted at 1000 RPM's. The cell pellet is reconstituted in membrane preparation buffer (20 mM HEPES, 6 mM MgCl2 and 1 mM EGTA, protease inhibitor tablets (Pierce) adjusted to pH 7.4), homogenized using a dounce homogenizer, and the resulting membrane fraction is pelleted by centrifugation at 12,000 RPM's. The membrane pellet is resuspended in membrane preparation buffer, snap freezed and stored at −80° C. for later use.
The hMC2 membrane binding assay utilizes the following components: radiolabel [^125I]ACTH (1-39) Tyr23 (PerkinElmer), wheat germ agglutinin coated PVT SPA beads (PerkinElmer), crude hMC2R membranes, and compounds. Briefly hMC2R membranes are incubated with SPA beads in binding assay buffer (50 mM HEPES, 5 mM MgCl2, 1 mM CaCl2, 0.2% BSA, protease inhibitor tablets (Pierce) adjusted to pH7.4) prior to assay initiation. A dose response of compound (the final concentration of compound is typically 0-10,000 nM), SPA membranes, and [^125I]ACTH (1-39) Tyr23 at a final concentration of 0.2 nM is plated in a 96-well assay plate and allowed to incubate 1.5 hours at room temperature. Assay plates are read using a Top Count NXT and Ki values for compounds are determined using a GraphPad Prism 6 non-linear regression analysis.
On to `CCOc1ncccc1-c1ccc(N2CCN(C(=O)c3ccc(F)cc3C(F)F)C[C@H]2CC)c(OCCN)n1` [1-13, 2-({5-[(2R)-4-[2-(difluoromethyl)-4-fluorobenzoyl]-2-ethylpiperazin-1-yl]-2′-ethoxy-[2,3′-bipyridin]-6-yl}oxy)ethan-1-amine], for which the Ki was under 0.01 µM.
As for `CCOc1ncccc1-c1ccc(N2CCN(C(=O)c3ccc(F)cc3C(F)F)C[C@H]2CC)c(O[C@@H]2CCNC2)n1` [1-6, 5-[(2R)-4-[2-(difluoromethyl)-4-fluorobenzoyl]-2-ethylpiperazin-1-yl]-2′-ethoxy-6-[(3R)-pyrrolidin-3-yloxy]-2,3′-bipyridine], the figure is under 0.01 µM; as for `CCOc1ncccc1-c1ccc(N2CCN(C(=O)c3ccc(F)cc3Cl)C[C@H]2CC)c(OCCNC)n1` [1-29, [2-({5-[(2R)-4-(2-chloro-4-fluorobenzoyl)-2-ethylpiperazin-1-yl]-2′-ethoxy-[2,3′-bipyridin]-6-yl}oxy)ethyl](methyl)amine], under 0.01 µM.
The result for `CCOc1ccccc1-c1ccc(N2CC[C@@H](Oc3ccc(C(F)(F)F)nc3C#N)C[C@H]2C)c(C(=O)N[C@@H]2CCN(C)C2)n1` (racemic) [2-23, 3-(cis*-4-{[2-cyano-6-(trifluoromethyl)pyridin-3-yl]oxy}-2-methylpiperidin-1-yl)-6-(2-ethoxyphenyl)-N-[(3R)-1-methylpyrrolidin-3-yl]pyridine-2-carboxamide] reads under 0.01 µM.
Consider `CCOc1ccc(C(=O)N2CCN(c3ccc(-c4cccnc4OCC)nc3OCCNC)[C@H](CC)C2)c(C(F)(F)F)n1` [1-9, [2-({2′-ethoxy-5-[(2R)-4-[6-ethoxy-2-(trifluoromethyl)pyridine-3-carbonyl]-2-ethylpiperazin-1-yl]-[2,3′-bipyridin]-6-yl}oxy)ethyl](methyl)amine], for which the Ki was under 0.01 µM.
The result for `CCOc1ncccc1-c1ccc(N2CCN(C(=O)c3ccc(Cl)cc3C(F)(F)F)C[C@H]2CC)c(OCCN)n1` [1-16, 2-({5-[(2R)-4-[4-chloro-2-(trifluoromethyl)benzoyl]-2-ethylpiperazin-1-yl]-2′-ethoxy-[2,3′-bipyridin]-6-yl}oxy)ethan-1-amine] reads under 0.01 µM; that for `CCOc1ccc(C(=O)N2CCN(c3ccc(-c4cccnc4OCC)nc3OCCN)[C@H](CC)C2)c(C(F)(F)F)n1` [1-12, 2-({2′-ethoxy-5-[(2R)-4-[6-ethoxy-2-(trifluoromethyl)pyridine-3-carbonyl]-2-ethylpiperazin-1-yl]-[2,3′-bipyridin]-6-yl}oxy)ethan-1-amine], under 0.01 µM; that for `CCOc1ccc(O[C@@H]2CCN(c3ccc(-c4cccnc4OCC)nc3C(=O)N[C@@H]3CCN(C)C3)[C@H](C3CC3)C2)c(C(F)(F)F)n1` (racemic) [2-13, 5-[cis*-2-cyclopropyl-4-{[6-ethoxy-2-(trifluoromethyl)pyridin-3-yl]oxy}piperidin-1-yl]-2′-ethoxy-N-[(3R)-1-methylpyrrolidin-3-yl]-[2,3′-bipyridine]-6-carboxamide], under 0.01 µM.
For `CCOc1ncccc1-c1ccc(N2CCN(C(=O)N3CCC[C@H]3C(F)(F)F)C[C@H]2CC)c(O[C@@H]2CCN(C)C2)n1` [1-4, 2′-ethoxy-5-[(2R)-2-ethyl-4-[(2S)-2-(trifluoromethyl)pyrrolidine-1-carbonyl]piperazin-1-yl]-6-{[(3R)-1-methylpyrrolidin-3-yl]oxy}-2,3′-bipyridine], the Ki fell in the range of 0.01 to 0.1 µM.
For `CCOc1ncccc1-c1ccc(N2CC[C@H](Oc3ccc(C(F)(F)F)cc3C#N)C[C@H]2C2CC2)c(C(=O)N[C@@H]2CCN(C)C2)n1` (racemic) [2-4, 5-[trans*4-[2-cyano-4-(trifluoromethyl)phenoxy]-2-cyclopropylpiperidin-1-yl]-2′-ethoxy-N-[(3R)-1-methylpyrrolidin-3-yl]-[2,3′-bipyridine]-6-carboxamide], the Ki is under 0.01 µM.
With `CCOc1ncccc1-c1ccc(N2CC[C@H](Oc3ccc(Cl)cc3C(F)(F)F)C[C@@H]2CC)c(C(=O)N[C@@H]2CCN(C)C2)n1` (single isomer, unassigned) [2-10, 5-[(2S,4S)*-4-[4-chloro-2-(trifluoromethyl)phenoxy]-2-ethylpiperidin-1-yl]-2′-ethoxy-N-[(3R)-1-methylpyrrolidin-3-yl]-[2,3′-bipyridine]-6-carboxamide], the Ki lay in the range of 0.01 to 0.1 µM.
As for `CCOc1ncccc1-c1ccc(N2CCN(C(=O)c3ccc(F)cc3C(F)(F)F)C[C@H]2CC)c(OCCNC)n1` [1-27, [2-({2′-ethoxy-5-[(2R)-2-ethyl-4-[4-fluoro-2-(trifluoromethyl)benzoyl]piperazin-1-yl]-[2,3′-bipyridin]-6-yl}oxy)ethyl](methyl)amine], the figure is under 0.01 µM.
In the case of `CCOc1ccc(C(=O)N2CCN(c3ccc(-c4cccnc4OCC)nc3O[C@@H](C)CN)[C@H](CC)C2)c(C(F)(F)F)n1` [1-22, (2S)-2-({2′-ethoxy-5-[(2R)-4-[6-ethoxy-2-(trifluoromethyl)pyridine-3-carbonyl]-2-ethylpiperazin-1-yl]-[2,3′-bipyridin]-6-yl}oxy)propan-1-amine], the Ki was under 0.01 µM.
As for `CCOc1ccc(C(=O)N2CCN(c3ccc(-c4cccnc4OCC)nc3O[C@H]3CCNC3)[C@H](CC)C2)c(C(F)(F)F)n1` [1-18, 2′-ethoxy-5-[(2R)-4-[6-ethoxy-2-(trifluoromethyl)pyridine-3-carbonyl]-2-ethylpiperazin-1-yl]-6-[(3S)-pyrrolidin-3-yloxy]-2,3′-bipyridine], the figure is under 0.01 µM; as for `CCOc1ncccc1-c1ccc(N2CC[C@@H](Oc3ccc(Cl)cc3C#N)C[C@H]2CC)c(C(=O)N[C@@H]2CCN(C)C2)n1` (single isomer, unassigned) [2-21], under 0.01 µM.
The result for `CCOc1ncccc1-c1ccc(N2CC[C@@H](Oc3ccc(C(F)(F)F)cc3C#N)C[C@H]2C2CC2)c(C(=O)N[C@@H]2CCNC2)n1` (racemic) [2-5, 5-[cis*4-[2-cyano-4-(trifluoromethyl)phenoxy]-2-cyclopropylpiperidin-1-yl]-2′-ethoxy-N-[(3R)-pyrrolidin-3-yl]-[2,3′-bipyridine]-6-carboxamide] reads under 0.01 µM.
The result for `CCOc1ncccc1-c1ccc(N2CCN(C(=O)N3CCC[C@H]3C(F)(F)F)C[C@H]2CC)c(O[C@@H]2CCNC2)n1` [1-8, 2′-ethoxy-5-[(2R)-2-ethyl-4-[(2S)-2-(trifluoromethyl)pyrrolidine-1-carbonyl]piperazin-1-yl]-6-[(3R)-pyrrolidin-3-yloxy]-2,3′-bipyridine] reads under 0.01 µM.
`CCOc1ncccc1-c1ccc(N2CC[C@H](Oc3ccc(C(F)(F)F)cc3C#N)C[C@H]2C2CC2)c(C(=O)N[C@@H]2CCNC2)n1` (racemic) [2-3, 5-[trans*4-[2-cyano-4-(trifluoromethyl)phenoxy]-2-cyclopropylpiperidin-1-yl]-2′-ethoxy-N-[(3R)-pyrrolidin-3-yl]-[2,3′-bipyridine]-6-carboxamide]: the Ki is 0.01 to 0.1 µM.
Turning to `CCOc1ncccc1-c1ccc(N2CC[C@@H](Oc3ccc(C(F)(F)F)cc3C#N)C[C@H]2CC)c(O[C@@H]2CCN(C)C2)n1` (mixture of isomers) [3-8, 2-{[rac-(2R,4R)-1-(2′-ethoxy-6-{[(3R)-1-methylpyrrolidin-3-yl]oxy}-[2,3′-bipyridin]-5-yl)-2-ethylpiperidin-4-yl]oxy}-5-(trifluoromethyl)benzonitrile], the Ki is 0.01 to 0.1 µM.
For the compound `CCOc1ncccc1-c1ccc(N2CC[C@H](Sc3ccccc3C(F)(F)F)C[C@H]2CC)c(C(=O)N[C@@H]2CCN(C)C2)n1` (racemic) [5-1, rac-2′-ethoxy-5-[(2R,4S)-2-ethyl-4-{[2-(trifluoromethyl)phenyl]sulfanyl}piperidin-1-yl]-N-[(3R)-1-methylpyrrolidin-3-yl]-[2,3′-bipyridine]-6-carboxamide], the Ki was under 0.01 µM.
As for `CCOc1ccc(C(=O)N2CCN(c3ccc(-c4cccnc4OCC)nc3OC[C@H](C)N)[C@H](CC)C2)c(C(F)(F)F)n1` [1-20, (2S)-1-({2′-ethoxy-5-[(2R)-4-[6-ethoxy-2-(trifluoromethyl)pyridine-3-carbonyl]-2-ethylpiperazin-1-yl]-[2,3′-bipyridin]-6-yl}oxy)propan-2-amine], the figure is under 0.01 µM; as for `CCOc1ncccc1-c1ccc(N2CCN(C(=O)N3CCc4cc(Cl)cc(C#N)c43)C[C@H]2CC)c(OCCNC)n1` [1-26, 5-chloro-1-[(3R)-4-{2′-ethoxy-6-[2-(methylamino)ethoxy]-[2,3′-bipyridin]-5-yl}-3-ethylpiperazine-1-carbonyl]-2,3-dihydro-1H-indole-7-carbonitrile], under 0.01 µM.
The result for `CCOc1ncccc1-c1ccc(N2CCN(C(=O)N3CCc4cc(Cl)cc(C#N)c43)C[C@H]2CC)c(OCCN)n1` [1-25, 1-[(3R)-4-[6-(2-aminoethoxy)-2′-ethoxy-[2,3′-bipyridin]-5-yl]-3-ethylpiperazine-1-carbonyl]-5-chloro-2,3-dihydro-1H-indole-7-carbonitrile] reads under 0.01 µM.

These data come from patent US12479825B2, “Melanocortin subtype-2 receptor (MC2R) antagonists and uses thereof” (Crinetics Pharmaceuticals, Inc., priority 2019, dated 2025).
